Measured values: publication PMC4165007 (The Indian Journal of Medical Research, 2014)

What was measured:
[1] = cited from earlier work
[2] = oral; cited from earlier work
[3] = cited from earlier work; remark: listed apart in the source
pepsin = pepsin (Sus scrofa, UniProt P00791); assay: Digestion with simulated gastric fluid; assay type: in vitro ADME; details: SGF pepsin, gastric pH, data not shown
purified chymotrypsin = assay: Incubation with purified chymotrypsin; assay type: in vitro ADME; details: data not shown
[4] = sublingual; cited from earlier work

Sequence of pepsin (P00791 60-385): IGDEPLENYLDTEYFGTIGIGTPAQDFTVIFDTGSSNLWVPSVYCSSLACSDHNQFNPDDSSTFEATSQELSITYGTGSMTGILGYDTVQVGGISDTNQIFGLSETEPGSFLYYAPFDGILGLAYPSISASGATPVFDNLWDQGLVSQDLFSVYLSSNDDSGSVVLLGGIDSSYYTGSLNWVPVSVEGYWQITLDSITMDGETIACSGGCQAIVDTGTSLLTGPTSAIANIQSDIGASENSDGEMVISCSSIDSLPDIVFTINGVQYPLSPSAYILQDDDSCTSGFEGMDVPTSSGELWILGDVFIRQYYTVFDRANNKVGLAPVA

Compound | half-life of injected OT in the plasma [1] [min] | bioavailability, given orally to pigs [2] | stability during digestion with human gastric juice [3] | OT hydrolysis on increasing the peptic digestion time to 12 h (pepsin) | effect of incubation with purified chymotrypsin (purified chymotrypsin) | bioavailability, given sublingually in humans [4]
CC[C@H](C)[C@@H]1NC(=O)[C@H](Cc2ccc(O)cc2)NC(=O)[C@@H](N)CSSC[C@@H](C(=O)N2CCC[C@H]2C(=O)N[C@@H](CC(C)C)C(=O)NCC(N)=O)NC(=O)[C@H](CC(N)=O)NC(=O)[C@H](CCC(N)=O)NC1=O [OT, Oxytocin] | 5 to 7 | very poor | stable | did not result in OT hydrolysis | led to its hydrolysis | very poor
arginine-vasopressin | – | – | stable | – | – | –
